Test results from paper PMC12366525, “Characterization of allosteric modulators that disrupt androgen receptor co-activator protein-protein interactions to alter transactivation–Drug leads for metastatic castration resistant prostate cancer” (SLAS discovery : advancing life sciences R & D, 2023).

Experiments:
PSA = assay: Western blot of PSA expression in C4–2 cells; format: cell-based, human; settings: for C4-2 cell lysates PSA Western Blot, relative to DMSO (100%): 10 nM DHT 24 h, 20 μM compound 3 h pre-exposure; for Effect on endogenous and DHT-enhanced PSA expression and secretion: C4–2 cells, 20 μM for 3 h prior to DMSO or 10 nM DHT, 24 h
Protocol: Cell lysate protein concentrations were determined in a bicinchoninic acid (BCA) assay. Equal amounts of cell protein were mixed with SDS-PAGE sample buffer and placed in a heat block at 100 °C for 5 min. The protein constituents of C4–2 cells were separated by SDS-PAGE on 10% separating gels, transferred to nitrocellulose membranes and western blots were probed overnight at 4 °C with a 1:1000 dilution of a rabbit anti-hPSA (Cell Signaling, Danvers, MA) primary antibody in Tris-buffered saline (TBS) Tween 20 (TBST) containing 5% non-fat milk. Membranes were washed 3x in TBST for 10 min, then incubated for 1 h at room temperature with a 1:10,000 dilution of the goat anti-rabbit IgG horse radish peroxidase (HRP) conjugated secondary antibody (Invitrogen, Carlsbad, CA) in TBST containing 5% non-fat milk. Western blots were then washed 3x in TBST and developed with Pierce enhanced chemiluminescence (ECL) western blotting substrate (Thermo Fisher Scientific, Waltham, MA). Images of western blot ECL bands were acquired on an iBright 1500 imaging system (Thermo Fisher Scientific, Waltham, MA) and quantified by iBright image analysis software.

AR-LBD = target: T1, AR-LBD (Homo sapiens, UniProt P10275); assay: H^3-DHT radioligand competition binding assay; settings: 10 nM H^3-DHT, recombinant His6-AR-LBD
T1 construct: The pET28a-AR-LBD (622–919) construct [78] was a gift; made in house
T1 sequence (P10275 622-919): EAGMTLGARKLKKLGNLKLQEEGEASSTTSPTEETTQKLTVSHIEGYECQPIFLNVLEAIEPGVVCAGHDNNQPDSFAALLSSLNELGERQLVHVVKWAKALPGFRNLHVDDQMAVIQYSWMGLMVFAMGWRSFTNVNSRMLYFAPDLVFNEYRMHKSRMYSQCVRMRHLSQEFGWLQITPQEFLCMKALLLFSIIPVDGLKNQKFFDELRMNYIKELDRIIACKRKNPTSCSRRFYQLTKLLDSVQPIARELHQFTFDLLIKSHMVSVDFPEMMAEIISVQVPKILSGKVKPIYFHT
Protocol: The His6-AR-LBD H^3-DHT competition binding assay has been described previously. Briefly, 96-well Cu^2+-coated plates (ThermoFisher) were incubated overnight at 4 °C with 5 μg per well His6-AR-LBD in 100 μL of PBS. Unbound His6-AR-LBD was aspirated, the plate was washed 3 × with 100 μL of 0.05% Tween 20 in PBS and then blocked with 100 μL of 1 mg/mL BSA in PBS for 1 h. After three more washes with 100 μL of PBS and 0.05% Tween 20, 40 μL of PBS was added to wells followed by 5 μL each of diluted compounds and 100 nM H^3-DHT transferred into the wells using a Matrix pipettor. Compounds were tested between 0.098 to 50 μM in the presence of 10 nM H^3-DHT. After 1 h, compounds and H^3-DHT were aspirated and washed 3 × with 0.05% Tween 20 in PBS; 100 μL of Microscint™−20 micro-scintillation cocktail buffer (Perkin Elmer, Waltham, MA) was added to each well, plates were sealed with adhesive plastic covers; and the counts per minute (CPMs) were captured in a TopCount NXT microtiter plate reader (Perkin Elmer, Waltham, MA).

IC50 (AR-LBD) [µM]	Structure (SMILES)	C4-2 cell lysates PSA Western Blot, relative to DMSO (100%) (PSA) [%]	Effect on endogenous and DHT-enhanced PSA expression and secretion (PSA)
43.7	Cc1ccccc1-c1cc(O)c2c(c1)CN(c1nc(C(N)=O)cs1)CCO2 [S1–1]	22.1	substantially reduced both endogenous and DHT-enhanced PSA expression and secretion
> 100	Cc1ccccc1-c1cc(O)c2c(c1)CN(c1nccs1)CCO2 [S1–3]	–	–

Second part, the compound before the results:

Structure (SMILES)	IC50 (AR-LBD) [µM]	C4-2 cell lysates PSA Western Blot, relative to DMSO (100%) (PSA) [%]	Effect on endogenous and DHT-enhanced PSA expression and secretion (PSA)
Cc1nsc(NC(=O)N2CCC(Sc3ccccc3C)CC2)n1 [S2–6]	–	0.9	substantially reduced both endogenous and DHT-enhanced PSA expression and secretion
Cc1c(-c2ccccc2F)[nH]c2ccc(CNC(=O)CCc3cn[nH]c3)cc12 [S3–11]	–	22.8	substantially reduced both endogenous and DHT-enhanced PSA expression and secretion
Cc1c(-c2ccccc2F)[nH]c2ccc(CNC(=O)c3ccc(CO)o3)cc12 [S3–14]	62.9	–	–
